The structures appear in SMILES notation.

As a reminder, the pKa is the negative logarithm of the acid dissociation constant.

For data set [1] the following is noted: literature; cited from earlier work.
Data set [2] is described as follows: Determination of nanoemulsion (NE) fluidity with DIOLL probe. The data set is classed as physicochemical.
For data set [3] the following is noted: cited from earlier work.
Data set [4] is described as follows: Probe fluorescence in DMPC liposomes as a function of temperature (5 to 65° C.). The data set is classed as physicochemical. Conditions: for maximum emission wavelength, liquid crystalline phase: above phase transition temperature; for maximum emission wavelength, liquid crystalline phase / maximum emission wavelength, gel phase: excitation 385 nm; for maximum emission wavelength, gel phase: below phase transition temperature. As to the method: Liposomes were prepared in PBS buffer using a classical freeze/though protocol. In brief, lipids dissolved in chloroform were dried under vacuum. The lipid film formed was rehydrated with the PBS solution and agitated until the complete suspension of the lipid film. The vesicle solution was then submitted to 6 freeze/thaw (5 min in liquid nitrogen/10 min in 37° C. water bath) cycles and then extruded 19 times sequentially trough 400 nm and 200 nm polycarbonate membranes (Avanti Polar Lipids Liposome Extruder). The 200 nm liposome suspension was stored at 4° C.
Fluorescence data was obtained using a Hitachi F4500 fluorometer. Emission spectra were recorded between 420 and 600 nm with an excitation wavelength fixed at 385 nm and 5 nm excitation and emission slits. Ethanol solutions of fluorescent probes were prepared and added to liposomes at a 1:400 (probe: phospholipid) molar ratio. Liposomes were used at a 40 μg.mL^−1 final concentration. Measurements were done at 21° C. for all liposome compositions indicated in Table 2, except for DMPC where a range of temperature from 5 to 65° C. was also applied.
The spectral shift described above was quantified by calculation of the Generalized Polarization (GP) parameter. This parameter provides a quantitative index of membrane fluidity and is calculated as the difference between fluorescence emission intensity at a 440 nm (lipids with gel properties) and the intensity at 490 nm (wavelength evidenced in lipids with liquid crystal properties), divided by the sum of these two intensities. The GP parameter was thus calculated from fluorescence emission intensities according to the following formula: […]
where Igel and Ilc are, respectively, intensities of fluorescence at wavelengths characteristic of probe emission, respectively in gel and liquid crystal lipid phases.

Data set [5] can be described thus: Probe fluorescence in organic solvents of increasing polarity. The data set is classed as physicochemical. Conditions: 25° C., 2.6 μM probes. On the procedure: Fluorescence measurements were performed with a Hitachi F4500 fluorometer. Excitation and emission slits were fixed at 5 nm and spectra were recorded at 25° C. using a 1 cm path length thermostated quartz micro-cuvette. 0.26 mM solutions of the probes were prepared in a dichloromethane: methanol mixture (3:1 volume ratio). Measurements were performed with […] probes diluted in the different solvents (see Table 1). The initial solvent of the stock solution thus represents 1% of the final volume.

Data set [6] can be described thus: Probe fluorescence intensity in POPC liposomes. The data set is classed as physicochemical. To be noted: 25° C., final concentration 0.2 μM.
Data set [7] concerns influenza virus membranes. As to the kind of experiment: Labeling of viral membranes and GP calculation. Conditions: 21° C.; excitation 390 nm.
Data set [8] can be described thus: DIOLL fluorescence in DPPC liposomes (plate reader, quantification method). The data set is classed as physicochemical. To be noted: 21° C., excitation 390 nm. As to the method: (§1) Liposomes were prepared using a classical freeze/thaw protocol. Briefly, the appropriate lipid mixture solubilized in chloroform was dried under vacuum, then solubilized with 1 ml buffer under strong agitation. Assays were done either in HEPES 20 mM pH 7.4 buffer 100 mM NaCl or in PBS. The liposome emulsion obtained was submitted to 6 freeze/thaw cycles (5 min in liquid nitrogen/10 min in a water bath at 37° C., 1 minute strong agitation) to decrease the number of bilayers and obtain unilamellar vesicles. To obtain homogenous vesicles, the liposome solution was extruded successively through a 400 nm and 100 nm polycarbonate membrane using an extruder (Avanti Polar Lipids). Liposomes were routinely prepared at lipid concentrations between 1 and 10 mg.ml^−1 and subsequently diluted at the desired concentration. A constant volume of DIOLL solution in ethanol (5 μl) was added in each well to obtain a final DIOLL concentration of 2 μM. The volume of ethanol added represented 2.5% of the final volume and had no effect on liposome integrity. The plate was incubated at room temperature for 10 min. Fluorescence emission spectra were recorded between 420 nm and 600 nm for an excitation wavelength of 390 nm with a TECAN InfiniteM200 plate reader. Spectra were recorded at 21° C.

The nature of data set [9]: DIOLL probe fluorescence-based liposome quantification. To be noted: POPC liposomes; 21° C.; excitation 390 nm. On the procedure:
A POPC solution of known concentration (100 μg.ml^−1) was used as standard. Increasing volumes of the standard solution were diluted with buffer in a 96 well plate (Nunc). The final volume per well was 200 μl and lipid concentrations between 0 and 80 μg.ml^−1 were used. Samples were prepared in parallel to a final volume of 200 μl per well.
A constant volume of DIOLL solution in ethanol (5 μl) was added in each well to obtain a final DIOLL concentration of 2 μM. The volume of ethanol added represented 2.5% of the final volume and had no effect on liposome integrity. The plate was incubated at room temperature for 10 min. Fluorescence emission spectra were recorded between 420 nm and 600 nm for an excitation wavelength of 390 nm with a TECAN InfiniteM200 plate reader. Spectra were recorded at 21° C.
The surface under the spectrum was calculated for each condition using an Excel complementary function, IntegralP (www.fordom.free.fr) which allows one to calculate the integral of a function when discrete data sets are available. Maximum fluorescence intensities or surfaces under the curve were plotted as a function of the lipid concentration to obtain the standard curve. […]
To conclude upon the repeatability of the method, the coefficient of variation (CV) was calculated as the percentage of the standard deviation on the mean of 5 independent measurements. […]

Data set [10] can be described thus: DIOLL fluorescence in DMPC liposomes (plate reader, quantification method). The data set is classed as physicochemical. Conditions: 21° C., excitation 390 nm. As to the method: as §1
The conditions of data set [11]: carboxylic group; cited from earlier work.

In the case of `CCCCCCCCCCCC(=O)c1ccc2cc(N(C)C)ccc2c1` [Laurdan, 6-dodecanoyl-2-dimethylaminonaphthalene], in data set [1], the “emission maximum, gel phase membranes” value was 440 nm and the “emission maximum, liquid crystalline phase membranes” value is 490 nm. Moreover, the “fluorescence emission peak when incubated with NE solution” value in [2] (single peak) worked out at 440 nm. Also, the “solubility in aqueous buffers” value in data set [3] is given as “low solubility in aqueous buffers”. Moreover, in data set [4], the “gel over liquid crystalline ratio of fluorescence intensity” value came out at 0.6; the “inflexion point of first derivative of GP vs temperature” value was found to be 23 °C; the “maximum emission wavelength, liquid crystalline phase” value is listed as “around 490 nm”; the “maximum emission wavelength, gel phase” value is given as 440 nm. In data set [5] (Chloroform), this compound showed a Maximum fluorescence intensity of 4441 A. U and a λ emission maximum of 440 nm. In [5] (DMSO), this compound came in with a Maximum fluorescence intensity of 5533 A. U and a λ emission maximum of 460 nm. In [5] (Ethanol), this compound displayed a Maximum fluorescence intensity of 4221 A. U and a λ emission maximum of 485 nm. Besides, in data set [5] (Toluene), the Maximum fluorescence intensity is recorded as 3814 A. U and the λ emission maximum came to 423 nm.
For `CCCCCCCCCCCC(=O)c1ccc2cc(N(C)CC(O)CO)ccc2c1` (stereo not shown) [DIOLL, 1-(6-((2,3-dihydroxypropyl)(methyl)amino)naphthalen-2-yl)dodecan-1-one], the “fluorescence intensity, fold higher than that of Laurdan and C-Laurdan” value in data set [6] was determined as 7 fold. For the same compound, the “maximum fluorescence intensity wavelength” value in [7] is 440 nm. Besides, in data set [2] (2.6 μM in MCT, single peak), the “fluorescence emission peak dissolved in MCT” value came to 440 nm. Besides, the “fluorescence emission dissolved in water” value in data set [2] (2.6 μM in water) is “no fluorescence emission was detected”. Moreover, the maximum fluorescence emission in data set [8] and in [10] was 440 nm each time. Besides, the “gel over liquid crystalline ratio of fluorescence intensity” value in [4] stood at 0.8. For the same compound, the “inflexion point of first derivative of GP vs temperature” value in [4] worked out at 23 °C. In [4], the “maximum emission wavelength, liquid crystalline phase” value came to 490 nm. Moreover, the “maximum emission wavelength, gel phase” value in data set [4] is 440 nm. The “fluorescence intensity emission maximum” value in data set [9] turned out to be 490 nm. The Maximum fluorescence intensity turned out to be 5041 A. U in data set [5] (Chloroform), 9384 A. U in [5] (DMSO), 7647 A. U in data set [5] (Ethanol) and 5041 A. U in [5] (Toluene). For the same compound, the λ emission maximum in data set [5] (Chloroform) came to 424 nm; in data set [5] (Chloroform, listed as DIOLL probe), 441 nm; in [5] (DMSO) it was 441 nm; in data set [5] (DMSO, listed as DIOLL probe) it was 460 nm; in data set [5] (Ethanol), 486 nm; in data set [5] (Toluene), 424 nm. The compound further showed a λ emission maximum in [5] (Toluene, listed as DIOLL probe) of 425 nm.
For `CCCCN(CCCC)c1ccc2cc(/C=C/c3cc[n+](CC(O)C[N+](C)(C)CCO)cc3)ccc2c1.[Br-].[Br-]` (stereo not shown) [Di-4-ANEPPDHQ], in data set [1], the “emission maximum, gel phase membranes” value was 560 nm and the “emission maximum, liquid crystalline phase membranes” value is reported as 610 nm.
For the compound `CCCCCCCCCCCC(=O)c1ccc2cc(N(C)CC(=O)O)ccc2c1` [C-Laurdan, 6-Dodecanoyl-2-[N-methyl-N-(carboxymethyl)amino] naphthalene], the pKa in [11] is 6.6. The Maximum fluorescence intensity is 3115 A. U in data set [5] (Chloroform), 2428 A. U in data set [5] (DMSO), 1491 A. U in [5] (Ethanol) and 359 A. U in data set [5] (Toluene). For the same compound, the λ emission maximum amounted to 432 nm in data set [5] (Chloroform), 450 nm in data set [5] (DMSO), 485 nm in data set [5] (Ethanol) and 416 nm in data set [5] (Toluene).

(Values after US20220390458A1, “FLUORESCENT PROBE AND APPLICATIONS THEREOF” (CENTRE NATIONAL DE LA RECHERCHE SCIENTIFIQUE (CNRS), priority 2019, published 2022).)
